Assay results from ChEMBL document CHEMBL4602691, “Selective DYRK1A Inhibitor for the Treatment of Type 1 Diabetes: Discovery of 6-Azaindole Derivative GNF2133” (J Med Chem, 2020).

What was measured:
[1] = Metabolic stability in human liver microsomes assessed as intrinsic clearance at 1 uM incubated for 30 mins by LC-MS/MS analysis; assay type: ADME, Microsome; conditions: 0.5 h
[2] = Aqueous solubility of compound at pH 6.8; assay type: physicochemical; conditions: aqueous medium
[3] = Metabolic stability in mouse liver microsomes assessed as intrinsic clearance at 1 uM incubated for 30 mins by LC-MS/MS analysis; assay type: ADME, Microsome; conditions: 0.5 h
[4] = Metabolic stability in rat liver microsomes assessed as intrinsic clearance at 1 uM incubated for 30 mins by LC-MS/MS analysis; assay type: ADME, Microsome; conditions: 0.5 h
[5] = Cmax in CD-1 mouse pancreas at 30 mg/kg, po; assay type: ADME, organism-based; set-up: dose 30 mg/kg, route oral
[6] = Tmax in CD-1 mouse pancreas at 30 mg/kg, po; assay type: ADME, organism-based
[7] = AUC in CD-1 mouse at 2 mg/kg, iv; assay type: ADME, organism-based; conditions: in vivo
[8] = Tmax in CD-1 mouse at 30 mg/kg, po; assay type: ADME, organism-based; conditions: in vivo
[9] = Cmax in CD-1 mouse at 30 mg/kg, po; assay type: ADME, organism-based; set-up: dose 30 mg/kg, route oral; conditions: in vivo
[10] = Clast in CD-1 mouse at 30 mg/kg, po; assay type: ADME, organism-based; conditions: in vivo, read-out: Clast
[11] = Half life in CD-1 mouse at 30 mg/kg, po; assay type: ADME, organism-based; conditions: in vivo
[12] = Clearance in CD-1 mouse at 2 mg/kg, iv; assay type: ADME, organism-based; conditions: in vivo
[13] = Cmax in CD-1 mouse at 2 mg/kg, iv; assay type: ADME, organism-based; set-up: dose 2 mg/kg, route intravenous; conditions: in vivo
[14] = Half life in CD-1 mouse at 2 mg/kg, iv; assay type: ADME, organism-based; conditions: in vivo
[15] = Tmax in CD-1 mouse at 2 mg/kg, iv; assay type: ADME, organism-based; conditions: in vivo
[16] = AUC in CD-1 mouse at 30 mg/kg, po; assay type: ADME, organism-based; conditions: in vivo
[17] = Clast in CD-1 mouse at 2 mg/kg, iv; assay type: ADME, organism-based; conditions: in vivo, read-out: Clast
[18] = AUC in CD-1 mouse pancreas at 30 mg/kg, po; assay type: ADME, organism-based
[19] = Volume of distribution at steady state in CD-1 mouse at 2 mg/kg, iv; assay type: ADME, organism-based; conditions: in vivo, read-out: Vdss
[20] = Oral bioavailability in CD-1 mouse at 30 mg/kg; assay type: ADME, organism-based; conditions: in vivo
[21] = Half life in CD-1 mouse pancreas at 30 mg/kg, po; assay type: ADME, organism-based
[22] = Clast in CD-1 mouse pancreas at 30 mg/kg, po; assay type: ADME, organism-based; conditions: in vivo, read-out: Clast

Row | CLH [1] | CLH [3] | CLH [4] | Structure (SMILES) | further results
1 | 28% | 30% | 18% | CCN1CCN(C(=O)Nc2cc(-c3cn(C4CCOCC4)c4cnccc34)ccn2)CC1 | solubility [2]: > 175 µM
2 | 21% | 23% | 25% | O=C(Nc1cc(-c2cn(C3CCOCC3)c3cnccc23)ccn1)N1CCOCC1 | –
3 | 87% | 94% | 86% | Nc1cc(-c2cn(-c3ccccc3)c3cnccc23)ccn1 | –
4 | 87% | 97% | 87% | c1cc(-c2cn(CC3CC3)c3cnccc23)ccn1 | –
5 | – | – | – | CCN1CCN(C(=O)Nc2cc(-c3cn(C4CCOCC4)c4cnccc34)ccn2)CC1.Cl | Cmax [5]: 13.3 µM; Tmax [6]: 3 h; AUC [7]: 3.27 µM·h; Tmax [8]: 3 h; Cmax [9]: 1680 nM; concentration [10]: 19 nM; half-life [11]: 204 min; clearance [12]: 23.5 mL/min/kg; Cmax [13]: 1980 nM; half-life [14]: 396 min; Tmax [15]: 1.8 min; AUC [16]: 11 µM·h; concentration [17]: 36.6 nM; AUC [18]: 144 µM·h; Vd [19]: 11 L/kg; bioavailability [20]: 22.3%; half-life [21]: 396 min; concentration [22]: 1320 nM
6 | 44% | 76% | 50% | O=C(Nc1cc(-c2cn(-c3ccccc3)c3cnccc23)ccn1)C1CC1 | –
7 | 21% | 70% | 60% | O=C(Nc1cc(-c2cn(-c3ccccc3)c3cnccc23)ccn1)NC1CC1 | –
8 | – | 91% | 83% | c1cc(-c2cn(C3CCOCC3)c3cnccc23)ccn1 | –
9 | 83% | 95% | 79% | CC(C)Cn1cc(-c2ccncc2)c2ccncc21 | –
10 | 43% | 43% | 45% | CC1(C)CN(C(=O)Nc2cc(-c3cn(C4CCOCC4)c4cnccc34)ccn2)C1 | –
11 | 92% | 97% | 90% | c1ccc(-n2cc(-c3ccncc3)c3ccncc32)cc1 | –
12 | 21% | 23% | 18% | C[C@@H]1CN(C(=O)Nc2cc(-c3cn([C@H]4CC[C@@](C)(O)CC4)c4cnccc34)ccn2)C[C@H](C)O1 | solubility [2]: > 175 µM
13 | – | 23% | 18% | C[C@@H]1CN(C(=O)Nc2cc(-c3cn(C4CCOCC4)c4cnccc34)ccn2)C[C@H](C)O1 | –
14 | 39% | 90% | 69% | CC1(Cn2cc(-c3ccncc3)c3ccncc32)COC1 | –
15 | – | 71% | 42% | O=C(Nc1cc(-c2cn(C3CCOCC3)c3cnccc23)ccn1)NC1CC1 | –
16 | 83% | 90% | 67% | c1ccc(Cn2cc(-c3ccncc3)c3ccncc32)cc1 | –
